Measurements: patent US9718828B2 (MERCK SHARP & DOHME CORP., priority 2011, dated 2017)
Structures can show the parent of a compound that is named as a salt. Where two headings read alike, the source gives them in different places.

Target: Btk enzyme (His-Btk) (Homo sapiens (Human), UniProt Q06187)
Assay: Btk enzyme activity, IMAP fluorescence polarization assay (Assay Method A)
[1] = read-out: EC50 Btk activity values - Assay Method A, IMAP-FP, 60 min pre-incubation, 5 μM ATP, class 100-1000 is given as ≧100 nM-<1 μM

Btk enzyme (His-Btk), sequence (Q06187 whole entry): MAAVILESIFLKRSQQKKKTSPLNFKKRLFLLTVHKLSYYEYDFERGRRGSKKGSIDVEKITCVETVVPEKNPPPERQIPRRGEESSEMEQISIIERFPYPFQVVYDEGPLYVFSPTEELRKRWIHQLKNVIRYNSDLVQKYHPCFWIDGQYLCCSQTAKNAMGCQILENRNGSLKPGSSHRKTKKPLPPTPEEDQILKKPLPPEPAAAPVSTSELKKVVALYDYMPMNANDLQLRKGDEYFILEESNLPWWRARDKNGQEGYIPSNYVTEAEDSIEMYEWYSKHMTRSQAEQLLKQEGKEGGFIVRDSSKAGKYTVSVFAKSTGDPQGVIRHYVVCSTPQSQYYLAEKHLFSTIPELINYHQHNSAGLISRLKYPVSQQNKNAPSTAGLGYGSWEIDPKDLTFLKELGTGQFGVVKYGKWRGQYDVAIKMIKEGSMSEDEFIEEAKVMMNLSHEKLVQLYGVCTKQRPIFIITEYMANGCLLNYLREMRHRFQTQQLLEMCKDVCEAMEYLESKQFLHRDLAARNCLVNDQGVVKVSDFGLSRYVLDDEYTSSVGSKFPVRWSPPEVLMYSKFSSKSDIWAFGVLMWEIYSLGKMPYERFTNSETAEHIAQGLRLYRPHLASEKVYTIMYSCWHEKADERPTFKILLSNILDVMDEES
Protocol: Inhibition of kinase activity can be measured using the Immobilized Metal Assay for Phosphochemicals (IMAP) assay. IMAP is a homogeneous fluorescence polarization (FP) assay based on affinity capture of phosphorylated peptide substrates. IMAP uses fluorescein-labeled peptide substrates that, upon phosphorylation by a protein kinase, bind to so-called IMAP nanoparticles, which are derivatized with trivalent metal complexes.
Btk enzyme activity is measured using the IMAP (immobilized metal ion affinity-based fluorescence polarization) assay as outlined below.
Test compounds and Btk enzyme are pre-incubated 60 minutes at room temperature, before adding 5 μL/well of 200 nM Fluorescin labeled substrate peptide (Blk/Lyntide substrate, e.g. #R7188/#R7233, Molecular Devices) in KR-buffer. Final peptide substrate concentration in assay is 50 nM. […] Following incubation for 2 h at room temperature the enzyme reaction is stopped by adding 40 μL/well IMAP Progressive Binding Solution (according to suppliers (Molecular Devices) protocol using 75% 1× buffer A and 25% 1× buffer B with 1:600 Progressive Binding Solution). After 60 min incubation at room temperature in the dark the FP signal is read. […] Values are calculated as percentage of the difference in readout (ΔmPi) of the controls with and without ATP. EC50 values are determined by curve fitting of the experimental results using Activity Base.

SMILES | EC50 [µM] | EC50 [1] [µM]
CN1CCc2nc(NC(=O)c3ccc(-c4nc([C@H]5CC[C@H](O)CC5)n5ccnc(N)c45)cc3)sc2C1 [Example 18, 4-(8-amino-3-((trans)-4-hydroxycyclohexyl)imidazo[1,5-a]pyrazin-1-yl)-N-(5-methyl-4,5,6,7-tetrahydrothiazolo[5,4-c]pyridin-2-yl)benzamide] | 0.1 to 1 | –
CCc1ccnc(NC(=O)c2ccc(-c3nc([C@H]4CC[C@H](O)CC4)n4ccnc(N)c34)cc2)c1 [Example 19, 4-(8-amino-3-((trans)-4-hydroxycyclohexyl)imidazo[1,5-a]pyrazin-1-yl)-N-(4-ethylpyridin-2-yl)benzamide] | – | < 0.01
Nc1nccn2c1c(-c1ccc(C(=O)Nc3cc(-c4ccccc4)ccn3)cc1)nc2[C@H]1CC[C@H](O)CC1 [Example 20, 4-(8-amino-3-((trans)-4-hydroxycyclohexyl)imidazo[1,5-a]pyrazin-1-yl)-N-(4-phenylpyridin-2-yl)benzamide] | – | < 0.01
Nc1nccn2c1c(-c1ccc(C(=O)Nc3cc(N4CCCC4)ccn3)cc1)nc2[C@H]1CC[C@H](O)CC1 [Example 21, 4-(8-amino-3-((trans)-4-hydroxycyclohexyl)imidazo[1,5-a]pyrazin-1-yl)-N-(4-(pyrrolidin-1-yl)pyridin-2-yl)benzamide] | 0.01 to 0.1 | –
Nc1nccn2c1c(-c1ccc(C(=O)Nc3ccccn3)c3ccccc13)nc2[C@H]1CC[C@H](O)CC1 [Example 22, 4-(8-amino-3-((trans)-4-hydroxycyclohexyl)imidazo[1,5-a]pyrazin-1-yl)-N-(pyridin-2-yl)-1-naphthamide] | 0.1 to 1 | –
Nc1nccn2c1c(-c1ccc(C(=O)Nc3ccccn3)c(Cl)c1)nc2[C@H]1CC[C@H](O)CC1 [Example 23, 4-(8-amino-3-((trans)-4-hydroxycyclohexyl)imidazo[1,5-a]pyrazin-1-yl)-2-chloro-N-(pyridin-2-yl)benzamide] | 0.01 to 0.1 | –
CCCc1ccnc(NC(=O)c2ccc(-c3nc(C4CCOCC4)n4ccnc(N)c34)cc2)c1 [Example 24, 4-(8-amino-3-(tetrahydro-2H-pyran-4-yl)imidazo [1,5-a]pyrazin-1-yl)-N-(4-propylpyridin-2-yl)benzamide] | < 0.01 | –
Nc1nccn2c(C3CCOCC3)nc(-c3ccc(C(=O)Nc4cc(C(F)(F)F)ccn4)cc3)c12 [Example 25, 4-(8-amino-3-(tetrahydro-2H-pyran-4-yl)imidazo[1,5-a]pyrazin-1-yl)-N-(4-(trifluoromethyl)pyridin-2-yl)benzamide] | – | < 0.01
N#Cc1ccnc(NC(=O)c2ccc(-c3nc(C4CCOCC4)n4ccnc(N)c34)cc2)c1 [Example 26, 4-(8-amino-3-(tetrahydro-2H-pyran-4-yl)imidazo [1,5-a]pyrazin-1-yl)-N-(4-cyanopyridin-2-yl)benzamide] | 0.01 to 0.1 | –
Nc1nccn2c(C3CCOCC3)nc(-c3ccc(C(=O)Nc4ccccn4)cc3)c12 [Example 27, 4-(8-amino-3-(tetrahydro-2H-pyran-4-yl)imidazo[1,5-a]pyrazin-1-yl)-N-(pyridin-2-yl)benzamide] | 0.01 to 0.1 | –
CCc1cnc(NC(=O)c2ccc(-c3nc(C4CCOCC4)n4ccnc(N)c34)cc2)s1 [Example 28, 4-(8-amino-3-(tetrahydro-2H-pyran-4-yl)imidazo[1,5-a]pyrazin-1-yl)-N-(5-ethylthiazol-2-yl)benzamide] | 0.01 to 0.1 | –
Nc1nccn2c(C3CCOCC3)nc(-c3ccc(C(=O)Nc4nccs4)cc3)c12 [Example 29, 4-(8-amino-3-(tetrahydro-2H-pyran-4-yl)imidazo[1,5-a]pyrazin-1-yl)-N-(thiazol-2-yl)benzamide] | 0.1 to 1 | –
CCCc1ccnc(NC(=O)c2ccc(-c3nc([C@H]4[C@@H]5COC[C@@H]54)n4ccnc(N)c34)cc2)c1 [Example 30, 4-(8-amino-3-((1R,5S,6S)-3-oxabicyc1o[3.1.0]hexan-6-yl)imidazo[1,5-a]pyrazin-1-yl)-N-(4-propylpyridin-2-yl)benzamide, TFA salt] | – | < 0.01
Nc1nccn2c([C@H]3[C@@H]4COC[C@@H]43)nc(-c3ccc(C(=O)Nc4cc(C(F)(F)F)ccn4)cc3)c12 [Example 31, 4-(8-amino-34(1R,5S,6S)-3-oxabicyclo[3.1.0]hexan-6-yl)imidazo[1,5-a]pyrazin-1-yl)-N-(4-(trifluoromethyl)pyridin-2-yl)benzamide, TFA salt] | – | < 0.01
CC1CCc2nc(NC(=O)c3ccc(-c4nc([C@H]5[C@@H]6COC[C@@H]65)n5ccnc(N)c45)cc3)sc2C1 (stereo partly drawn) [Example 32, 4-(8-amino-3-((1R,5S,6S)-3-oxabicyclo[3.1.0]hexan-6-yl)imidazo[1,5-a]pyrazin-1-yl)-N-(6-methyl-4,5,6,7-tetrahydrobenzo[d]thiazol-2-yl)benzamide, TFA salt] | 0.01 to 0.1 | –
N#Cc1ccnc(NC(=O)c2ccc(-c3nc(C4CCOC4)n4ccnc(N)c34)cc2)c1 (stereo not drawn) [Example 33, 4-(8-amino-3-(tetrahydrofuran-3-yl)imidazo[1,5-a]pyrazin-1-yl)-N-(4-cyanopyridin-2-yl)benzamide] | 0.01 to 0.1 | –

The next lines start with the values.

EC50 [µM] | EC50 [1] [µM] | SMILES
– | < 0.01 | CC1(C)CC(c2nc(-c3ccc(C(=O)Nc4cc(C(F)(F)F)ccn4)cc3)c3c(N)nccn23)CCO1 (stereo not drawn) [Example 34, 4-(8-amino-3-(2,2-dimethyltetrahydro-2H-pyran-4-yl)imidazo[1,5-a]pyrazin-1-yl)-N-(4-(trifluoromethyl)pyridin-2-yl)benzamide]
0.01 to 0.1 | – | CC1(C)CC(c2nc(-c3ccc(C(=O)Nc4ccccn4)cc3)c3c(N)nccn23)CCO1 (stereo not drawn) [Example 35, 4-(8-amino-3-(2,2-dimethyltetrahydro-2H-pyran-4-yl)imidazo[1,5-a]pyrazin-1-yl)-N-(pyridin-2-yl)benzamide]
– | < 0.01 | CCCc1ccnc(NC(=O)c2ccc(-c3nc(C4CCOC(C)(C)C4)n4ccnc(N)c34)cc2)c1 (stereo not drawn) [Example 36, 4-(8-amino-3-(2,2-dimethyltetrahydro-2H-pyran-4-yl)imidazo[1,5-a]pyrazin-1-yl)-N-(4-propylpyridin-2-yl)benzamide]
0.01 to 0.1 | – | CC1(C)CC(c2nc(-c3ccc(C(=O)Nc4cc(C#N)ccn4)cc3)c3c(N)nccn23)CCO1 (stereo not drawn) [Example 37, 4-(8-amino-3-(2,2-dimethyltetrahydro-2H-pyran-4-yl)imidazo[1,5-a]pyrazin-1-yl)-N-(4-cyanopyridin-2-yl)benzamide]
0.01 to 0.1 | – | CCc1cnc(NC(=O)c2ccc(-c3nc([C@H]4CC[C@H](OC(C)=O)CC4)n4ccnc(N)c34)cc2)s1 [Example 38, (trans)-4-(8-amino-1-(4-(5-ethylthiazol-2-ylcarbamoyl)phenyl)imidazo [1,5-a]pyrazin-3-yl)cyclohexyl acetate]
0.01 to 0.1 | – | CCc1cnc(NC(=O)c2ccc(-c3nc([C@H]4CC[C@@H](OC)CC4)n4ccnc(N)c34)cc2)s1 [Example 39, 4-(8-amino-3-((cis)-4-methoxycyclohexyl)imidazo [1,5-a]pyrazin-1-yl)-N-(5-ethylthiazol-2-yl)benzamide]
– | < 0.01 | CO[C@H]1CC[C@@H](c2nc(-c3ccc(C(=O)Nc4cc(C(F)(F)F)ccn4)cc3)c3c(N)nccn32)CC1 [Example 40, 4-(8-amino-3-((cis)-4-methoxycyclohexyl)imidazo [1,5-a]pyrazin-1-yl)-N-(4-(trifluoromethyl)pyridin-2-yl)benzarnide]
< 0.01 | – | CO[C@H]1CC[C@@H](c2nc(-c3ccc(C(=O)Nc4cc(C#N)ccn4)cc3)c3c(N)nccn32)CC1 [Example 41, 4-(8-amino-3-((cis)-4-methoxycyclohexyl)imidazo [1,5-a]pyrazin-1-yl)-N-(4-cyanopyridin-2-yl)benzamide]
